“Also recorded” adds a separate entry of the source.
Experiments:
PriA helicase = assay: ITC binding to PriA helicase; parameters: species or system E. coli; details: 25°C; for binding detected by ITC (in words): 0.2 M NaCl, same protein and peptide concentrations as with WP9
[1] = tested on: χ subunit of DNA polymerase III holoenzyme; assay: ITC binding to χ subunit; parameters: species or system E. coli; details: 25°C; for K, observed association equilibrium constant: buffer C (10 mM cacodylate, pH 7.0, 25% glycerol), 20 mM NaCl
[2] = tested on: χ subunit of DNA polymerase III holoenzyme; details: SSB prebound to ssDNA, low salt (5mM NaCl); cited from earlier work
[3] = buffer C, pH 7.0, 200 mM NaCl, WP9: averaged from two titrations
[4] = buffer T (10 mM Tris, pH 7.5, 10% glycerol), 20 mM NaCl
[5] = buffer C (10 mM cacodylate, pH 7.0, 25% glycerol), 20 mM NaCl

MDFDDDIPF [P9]
K, observed association equilibrium constant (PriA helicase; [3]): (1.8±0.6)×10^5 M^−1 | K, observed association equilibrium constant (PriA helicase; [4]): (2.0±0.3)×10^6 M^−1 | K, observed association equilibrium constant [1]: (1.6±0.4)×10^6 M^−1

PSNEPPMDFDDDIPF [P15]
K, observed association equilibrium constant (PriA helicase; [5]): (2.7±0.2)×10^6 M^−1 | K, observed association equilibrium constant (PriA helicase; [3]): (3.6±0.2)×10^5 M^−1 | K, observed association equilibrium constant (PriA helicase; [4]): (1.6±0.4)×10^6 M^−1 | K, observed association equilibrium constant [1]: (1.5±0.2)×10^6 M^−1

SSB: E. coli single stranded DNA binding protein, homotetramer
affinity of χ for SSB in the presence of ssDNA [2]: (7.4±1.0)×10^6 M^−1 | binding detected by ITC (in words) ([1]; 0.02 M NaCl): too weak to determine its binding parameters; also recorded: Weak (see text)

WDFMDDPFID [WP9r]
binding detected by ITC (in words) (PriA helicase; buffer C): No binding can be detected | binding detected by ITC (in words) ([1]; 0.2 M NaCl, buffer C): No binding can be detected

WMDFDDDISF [WP9-113]
binding detected by ITC (in words) (PriA helicase; buffer C): No binding can be detected | binding detected by ITC (in words) ([1]; 0.2 M NaCl, buffer C): No binding can be detected

WP9: modified P9 peptide containing a Trp residue on the N terminal side (WMDFDDDIPF)
K, observed association equilibrium constant (PriA helicase; [5]): (1.6±0.2)×10^6 M^−1 | K, observed association equilibrium constant (PriA helicase; [3]): (2.3±0.3)×10^5 M^−1 | K, observed association equilibrium constant [1]: (1.2±0.1)×10^6 M^−1
